{"source": "patent US20150274719A1", "about": "“AMINO-SUBSTITUTED IMIDAZO[1,2-A]PYRIDINECARBOXAMIDES AND THEIR USE” (BAYER PHARMA AKTIENGESELLSCHAFT, priority 2012, published 2015)", "note": "Structures can show the parent of a compound that is named as a salt.", "data": [{"molecular_target": "T1, recombinant guanylate cyclase reporter cell line (Rattus norvegicus, UniProt P19686+P20595)", "T1 construct": "expressed in transfected cells; host or cells: recombinant reporter cell line", "T1 sequence (P19686 1-690)": "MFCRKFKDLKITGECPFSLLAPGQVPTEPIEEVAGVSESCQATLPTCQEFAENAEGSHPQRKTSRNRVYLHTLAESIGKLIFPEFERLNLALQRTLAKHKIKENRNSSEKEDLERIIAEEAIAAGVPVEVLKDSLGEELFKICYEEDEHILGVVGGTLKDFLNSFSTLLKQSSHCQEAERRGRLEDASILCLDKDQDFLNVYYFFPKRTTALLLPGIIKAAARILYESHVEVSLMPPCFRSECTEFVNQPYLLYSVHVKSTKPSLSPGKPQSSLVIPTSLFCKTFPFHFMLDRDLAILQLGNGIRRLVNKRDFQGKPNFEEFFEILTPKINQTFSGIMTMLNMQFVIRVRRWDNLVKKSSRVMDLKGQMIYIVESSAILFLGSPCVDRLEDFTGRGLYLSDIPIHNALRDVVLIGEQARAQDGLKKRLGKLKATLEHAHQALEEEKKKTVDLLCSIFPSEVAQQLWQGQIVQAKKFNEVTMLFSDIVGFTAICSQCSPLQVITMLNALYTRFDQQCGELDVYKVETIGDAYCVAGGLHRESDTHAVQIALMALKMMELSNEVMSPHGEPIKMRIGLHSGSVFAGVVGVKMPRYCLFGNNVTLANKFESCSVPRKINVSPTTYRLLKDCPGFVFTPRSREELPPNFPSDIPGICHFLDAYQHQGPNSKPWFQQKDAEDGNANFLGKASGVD", "T1 sequence (P20595 1-619)": "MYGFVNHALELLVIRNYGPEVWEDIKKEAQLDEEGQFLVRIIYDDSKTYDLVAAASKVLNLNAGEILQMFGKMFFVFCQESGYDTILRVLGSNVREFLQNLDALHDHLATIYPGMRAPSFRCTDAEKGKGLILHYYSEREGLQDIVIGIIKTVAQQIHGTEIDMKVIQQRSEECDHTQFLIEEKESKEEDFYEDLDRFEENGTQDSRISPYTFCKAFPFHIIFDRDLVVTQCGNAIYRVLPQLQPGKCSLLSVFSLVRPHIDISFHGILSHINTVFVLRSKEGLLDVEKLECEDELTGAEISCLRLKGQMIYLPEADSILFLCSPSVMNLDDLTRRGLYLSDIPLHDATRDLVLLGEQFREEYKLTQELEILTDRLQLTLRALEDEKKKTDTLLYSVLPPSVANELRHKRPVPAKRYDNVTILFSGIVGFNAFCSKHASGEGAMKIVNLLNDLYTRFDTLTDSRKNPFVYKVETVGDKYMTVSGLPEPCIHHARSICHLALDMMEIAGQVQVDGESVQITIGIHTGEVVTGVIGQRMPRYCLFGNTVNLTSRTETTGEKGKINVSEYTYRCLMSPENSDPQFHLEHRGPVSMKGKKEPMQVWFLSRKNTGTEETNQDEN", "test": "Action on recombinant guanylate cyclase reporter cell line", "assay_type": "cell-based", "details": "in some cases mean values from individual determinations", "procedure": "B-2. Action on Recombinant Guanylate Cyclase Reporter Cell Line\nThe cellular action of the compounds according to the invention is determined on a recombinant guanylate cyclase reporter cell line, as described in F. Wunder et al., Anal. Biochem. 339, 104-112 (2005).\nRepresentative MEC values (MEC=minimal effective concentration) for the compounds according to the invention are shown in the following table (in some cases as mean values obtained from individual determinations): […]", "units": {"MEC (minimal effective concentration)": "µM"}, "values": [{"smiles": "CCN1C2CCCC1CC(NC(=O)c1c(C)nc3c(OCc4c(F)cccc4F)cccn13)C2", "note": "(stereo not shown) [Example 71, 8-[(2,6-Difluorobenzyl)oxy]-N-(9-ethyl-9-azabicyclo[3.3.1]non-3-yl)-2-methylimidazo[1,2-a]-pyridine-3-carboxamide]", "MEC (minimal effective concentration)": 0.30}, {"smiles": "CCOCC(CN)NC(=O)c1c(C)nc2c(OCc3c(F)cccc3F)cccn12", "note": "(single isomer, unassigned) [Example 56, ent-N-(1-amino-3-ethoxypropan-2-yl)-8-[(2,6-difluorobenzyl)oxy]-2-methylimidazo[1,2-a]-pyridine-3-carboxamide]", "MEC (minimal effective concentration)": 1.00}, {"smiles": "Cc1cc(OCc2c(F)cccc2F)c2nc(C)c(C(=O)NCC(C)(N)CCO)n2c1", "note": "(single isomer, unassigned; enantiomer a) [Example 271, ent-N-(2-Amino-4-hydroxy-2-methylbutyl)-8-[(2,6-difluorobenzyl)oxy]-2,6-dimethylimidazo[1,2-a]pyridine-3-carboxamide (Enantiomer A)]", "MEC (minimal effective concentration)": 0.30}, {"smiles": "Cc1nc2c(OCc3c(F)cccc3F)cccn2c1C(=O)NC(CN)COc1ccccc1", "note": "(racemic) [Example 59, rac-N-(1-amino-3-phenoxypropan-2-yl)-8-[(2,6-difluorobenzyl)oxy]-2-methylimidazo[1,2-a]-pyridine-3-carboxamide dihydrochloride]", "MEC (minimal effective concentration)": 3.00}, {"smiles": "Cc1nc2c(OCc3c(F)cccc3F)cccn2c1C(=O)NC(C)[C@H](C)N", "note": "(single isomer, unassigned) [Example 175]", "MEC (minimal effective concentration)": 1.00}, {"smiles": "Cc1nc2c(OCc3c(F)cccc3F)cccn2c1C(=O)NCC(C)(N)CCOCc1ccccc1", "note": "(single isomer, unassigned; enantiomer a) [Example 266, ent-N-[2-Amino-4-(benzyloxy)-2-methylbutyl]-8-[(2,6-difluorobenzyl)oxy]-2-methylimidazo[1,2-a]pyridine-3-carboxamide (Enantiomer A)]", "MEC (minimal effective concentration)": 0.03}, {"smiles": "Cc1cc(OCc2c(F)cccc2F)c2nc(C)c(C(=O)NCC(C)(N)COCc3ccccc3)n2c1", "note": "(racemic) [Example 265, rac-N-[2-amino-3-(benzyloxy)-2-methylpropyl]-8-[(2,6-difluorobenzyl)oxy]-2,6-dimethylimidazo[1,2-a]pyridine-3-carboxamide]", "MEC (minimal effective concentration)": 0.30}, {"smiles": "Cc1nc2c(OCc3c(F)cccc3F)cc(Cl)cn2c1C(=O)NCC(C)(N)C(F)(F)F", "note": "(single isomer, unassigned) [Example 238, ent-N-(2-Amino-3,3,3-trifluoro-2-methylpropyl)-6-chloro-8-[(2,6-difluorobenzyl)oxy]-2-methyl-imidazo[1,2-a]pyridine-3-carboxamide]", "MEC (minimal effective concentration)": 1.00}, {"smiles": "Cc1cc(OCc2c(F)cccc2F)c2nc(C)c(C(=O)NCC(N)C#N)n2c1", "note": "(single isomer, unassigned; enantiomer a) [Example 401, ent-N-(2-amino-2-cyanoethyl)-8-[(2,6-difluorobenzyl)oxy]-2,6-dimethylimidazo[1,2-a]pyridine-3-carboxamide (Enantiomer A)]", "MEC (minimal effective concentration)": 1.00}, {"smiles": "Cc1nc2c(OCc3c(F)cccc3F)cc(Cl)cn2c1C(=O)NCC(C)(C)N1CCCC1", "note": "[Example 148, 6-chloro-8-[(2,6-difluorobenzyl)oxy]-2-methyl-N-[2-methyl-2-(pyrrolidin-1-yl)-propyl]imidazo[1,2-a]pyridine-3-carboxamide]", "MEC (minimal effective concentration)": 1.00}, {"smiles": "CCCC[C@H](CN1CCN(C)CC1)NC(=O)c1c(C)nc2c(OCc3c(F)cccc3F)cccn12", "note": "[Example 67, ent-8-[(2,6-difluorobenzyl)oxy]-2-methyl-N-[(2R)-1-(4-methylpiperazin-1-yl)hexan-2-yl]imidazo[1,2-a]pyridine-3-carboxamide]", "MEC (minimal effective concentration)": 0.30}, {"smiles": "Cc1cc(OCc2c(F)cccc2F)c2nc(C)c(C(=O)NCC(C)N3CCOCC3)n2c1", "note": "(racemic) [Example 138, rac-8-[(2,6-difluorobenzyl)oxy]-2,6-dimethyl-N-[2-(morpholin-4-yl)propyl]imidazo[1,2-a]-pyridine-3-carboxamide]", "MEC (minimal effective concentration)": 0.30}, {"smiles": "Cc1nc2c(OCc3c(F)cccc3F)cccn2c1C(=O)NCC(C)N1CCOCC1", "note": "(single isomer, unassigned; ent-8) [Example 180, ent-8-[(2,6-Difluorobenzyl)oxy]-2-methyl-N-[2-(morpholin-4-yl)propyl]imidazo[1,2-a]pyridine-3-carboxamide]", "MEC (minimal effective concentration)": 1.00}, {"smiles": "Cc1nc2c(OCc3c(F)cccc3F)cccn2c1C(=O)NC(C)CN", "note": "(racemic) [Example 17, rac-N-(1-aminopropan-2-yl)-8-[(2,6-difluorobenzyl)oxy]-2-methylimidazo[1,2-a]pyridine-3-carboxamide dihydrochloride]", "MEC (minimal effective concentration)": 1.00}, {"smiles": "Cc1nc2c(OCc3c(F)cccc3F)cc(Cl)cn2c1C(=O)NC1CNCc2ccccc21", "note": "(single isomer, unassigned; ent-6) [Example 107, ent-6-chloro-8-[(2,6-difluorobenzyl)oxy]-2-methyl-N-(1,2,3,4-tetrahydroisoquinolin-4-yl)imidazo[1,2-a]pyridine-3-carboxamide]", "MEC (minimal effective concentration)": 0.30}, {"smiles": "Cc1nc2c(OCc3c(F)cccc3F)cccn2c1C(=O)NCC(N)C(C)C", "note": "(single isomer, unassigned) [Example 229, ent-N-(2-Amino-3-methylbutyl)-8-[(2,6-difluorobenzyl)oxy]-2-methylimidazo[1,2-a]pyridine-3-carboxamide]", "MEC (minimal effective concentration)": 1.00}, {"smiles": "Cc1nc2c(OCc3c(F)cccc3F)cc(Cl)cn2c1C(=O)NCC(N)CC(F)(F)F", "note": "(single isomer, unassigned) [Example 192, ent-N-(2-Amino-4,4,4-trifluorobutyl)-6-chloro-8-[(2,6-difluorobenzyl)oxy]-2-methylimidazo[1,2-a]pyridine-3-carboxamide]", "MEC (minimal effective concentration)": 0.30}, {"smiles": "Cc1nc2c(OCc3c(F)cccc3F)cccn2c1C(=O)NCCN(CC(F)F)C1CC1", "note": "[Example 146, N-{2-[cyclopropyl(2,2-difluoroethyl)amino]ethyl}-8-[(2,6-difluorobenzyl)oxy]-2-methylimidazo[1,2-a]-pyridine-3-carboxamide]", "MEC (minimal effective concentration)": 1.00}, {"smiles": "Cc1nc2c(OCc3c(F)cccc3F)cccn2c1C(=O)N[C@H](C)CN1CCOCC1", "note": "[Example 170, 8-[(2,6-difluorobenzyl)oxy]-2-methyl-N-[(2R)-1-(morpholin-4-yl)propan-2-yl]imidazo[1,2-a]-pyridine-3-carboxamide]", "MEC (minimal effective concentration)": 3.00}, {"smiles": "Cc1cc(OCc2c(F)cccc2F)c2nc(C)c(C(=O)NCC3CNCCO3)n2c1", "note": "(racemic) [Example 345, rac-8-[(2,6-Difluorobenzyl)oxy]-2,6-dimethyl-N-(morpholin-2-ylmethyl)imidazo[1,2-a]pyridine-3-carboxamide]", "MEC (minimal effective concentration)": 1.00}, {"smiles": "Cc1cc(OCc2c(F)cccc2F)c2nc(C)c(C(=O)NC3CC3N)n2c1", "note": "(racemic) [Example 330, rac-N-(2-aminocyclopropyl)-8-[(2,6-difluorobenzyl)oxy]-2,6-dimethylimidazo[1,2-a]pyridine-3-carboxamide]", "MEC (minimal effective concentration)": 0.30}, {"smiles": "Cc1cc(OCc2c(F)cccc2F)c2nc(C)c(C(=O)NC3CC(C)Nc4ccc(C(F)(F)F)nc43)n2c1", "note": "(single isomer, unassigned; ent-8) [Example 326, ent-8-[(2,6-Difluorobenzyl)oxy]-2,6-dimethyl-N-[2-methyl-6-(trifluoromethyl)-1,2,3,4-tetrahydro-1,5-naphthyridin-4-yl]imidazo[1,2-a]pyridine-3-carboxamide]", "MEC (minimal effective concentration)": 0.30}]}]}
